#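 Assay format: 96-well plates, 48-hour exposure. The concentration for full growth arrest is given as TGI.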
# Columns and labels:
# Test in all cases: inhibition of tumour cell growth, NCI panel, 48 h
# SN12C renal = tested on: SN12C renal
# MDA-MB-231 breast = tested on: MDA-MB-231 breast
# SF-539 CNS = tested on: SF-539 CNS
# SR leukemia = tested on: SR leukemia
# UACC-62 melanoma = tested on: UACC-62 melanoma
# A549 NSCLC = tested on: A549 NSCLC
# MDA-N = tested on: MDA-N
# COLO 205 colon = tested on: COLO 205 colon
# SK-MEL-5 melanoma = tested on: SK-MEL-5 melanoma
# MALME-3M melanoma = tested on: MALME-3M melanoma
# RPMI-8226 leukemia = tested on: RPMI-8226 leukemia
# T-47D breast = tested on: T-47D breast
# DU-145 prostate = tested on: DU-145 prostate
# OVCAR-4 ovarian = tested on: OVCAR-4 ovarian
# CCRF-CEM leukemia = tested on: CCRF-CEM leukemia
# HT29 colon = tested on: HT29 colon
# SK-OV-3 ovarian = tested on: SK-OV-3 ovarian
# HS 578T breast = tested on: HS 578T breast
# NCI-H226 lung = tested on: NCI-H226 lung
# NCI/ADR-RES ovarian = tested on: NCI/ADR-RES ovarian
# EKVX NSCLC = tested on: EKVX NSCLC
# SF-268 CNS = tested on: SF-268 CNS
# LOX IMVI melanoma = tested on: LOX IMVI melanoma
# OVCAR-8 ovarian = tested on: OVCAR-8 ovarian
# U251 CNS = tested on: U251 CNS
# SK-MEL-28 melanoma = tested on: SK-MEL-28 melanoma
# MOLT-4 leukemia = tested on: MOLT-4 leukemia
# HOP-62 NSCLC = tested on: HOP-62 NSCLC
# HOP-92 NSCLC = tested on: HOP-92 NSCLC
# UACC-257 melanoma = tested on: UACC-257 melanoma
# K-562 leukemia = tested on: K-562 leukemia
# NCI-H460 lung = tested on: NCI-H460 lung
# SW-620 colon = tested on: SW-620 colon
# M14 melanoma = tested on: M14 melanoma
# BT-549 breast = tested on: BT-549 breast
# HCT-15 colon = tested on: HCT-15 colon
# SNB-75 CNS = tested on: SNB-75 CNS
# NCI-H23 lung = tested on: NCI-H23 lung
# HL-60(TB) leukemia = tested on: HL-60(TB) leukemia
# IGROV1 ovarian = tested on: IGROV1 ovarian
# TK-10 renal = tested on: TK-10 renal
# HCC-2998 colon = tested on: HCC-2998 colon
# MCF7 breast = tested on: MCF7 breast
# KM12 colon = tested on: KM12 colon
# CAKI-1 renal = tested on: CAKI-1 renal
# UO-31 renal = tested on: UO-31 renal
# NCI-H522 lung = tested on: NCI-H522 lung
# ACHN renal = tested on: ACHN renal
# A498 renal = tested on: A498 renal
# SK-MEL-2 melanoma = tested on: SK-MEL-2 melanoma
# HCT-116 colon = tested on: HCT-116 colon
# PC-3 prostate = tested on: PC-3 prostate
# SNB-19 CNS = tested on: SNB-19 CNS
# MDA-MB-435 = tested on: MDA-MB-435
# OVCAR-3 ovarian = tested on: OVCAR-3 ovarian
# 786-0 renal = tested on: 786-0 renal
# OVCAR-5 ovarian = tested on: OVCAR-5 ovarian
# SF-295 CNS = tested on: SF-295 CNS
# RXF 393 renal = tested on: RXF 393 renal
smiles,measurement,setting,value
C/C(=N\NC(=O)c1ccncc1)c1cccc(C(F)(F)F)c1,TGI,SN12C renal,> 10 µM
same,TGI,MDA-MB-231 breast,> 10 µM
same,TGI,SF-539 CNS,> 10 µM
same,TGI,SR leukemia,> 10 µM
same,TGI,UACC-62 melanoma,> 10 µM
same,TGI,A549 NSCLC,> 10 µM
same,TGI,MDA-N,> 10 µM
same,TGI,COLO 205 colon,> 10 µM
same,TGI,SK-MEL-5 melanoma,> 10 µM
same,TGI,MALME-3M melanoma,> 10 µM
same,TGI,RPMI-8226 leukemia,> 10 µM
same,TGI,T-47D breast,> 10 µM
same,TGI,DU-145 prostate,> 10 µM
same,TGI,OVCAR-4 ovarian,> 10 µM
same,TGI,CCRF-CEM leukemia,> 10 µM
same,TGI,HT29 colon,> 10 µM
same,TGI,SK-OV-3 ovarian,> 10 µM
same,TGI,HS 578T breast,> 10 µM
same,TGI,NCI-H226 lung,> 10 µM
same,TGI,NCI/ADR-RES ovarian,> 10 µM
same,TGI,EKVX NSCLC,> 10 µM
same,TGI,SF-268 CNS,> 10 µM
same,TGI,LOX IMVI melanoma,> 10 µM
same,TGI,OVCAR-8 ovarian,> 10 µM
same,TGI,U251 CNS,> 10 µM
same,TGI,SK-MEL-28 melanoma,> 10 µM
same,TGI,MOLT-4 leukemia,> 10 µM
same,TGI,HOP-62 NSCLC,> 10 µM
same,TGI,HOP-92 NSCLC,> 10 µM
same,TGI,UACC-257 melanoma,> 10 µM
same,TGI,K-562 leukemia,> 10 µM
same,TGI,NCI-H460 lung,> 10 µM
same,TGI,SW-620 colon,> 10 µM
same,TGI,M14 melanoma,> 10 µM
same,TGI,BT-549 breast,> 10 µM
same,TGI,HCT-15 colon,> 10 µM
same,TGI,SNB-75 CNS,> 10 µM
same,TGI,NCI-H23 lung,> 10 µM
same,TGI,HL-60(TB) leukemia,> 10 µM
same,TGI,IGROV1 ovarian,> 10 µM
same,TGI,TK-10 renal,> 10 µM
same,TGI,HCC-2998 colon,> 10 µM
same,TGI,MCF7 breast,> 10 µM
same,TGI,KM12 colon,> 10 µM
same,TGI,CAKI-1 renal,> 10 µM
same,TGI,UO-31 renal,> 10 µM
O=c1oc2ccccc2c(O)c1C(c1ccc(O)cc1)c1c(O)c2ccccc2oc1=O,TGI,SN12C renal,> 100 µM
same,TGI,MDA-MB-231 breast,77.7 µM
same,TGI,UACC-62 melanoma,> 100 µM
same,TGI,MDA-N,> 100 µM
same,TGI,COLO 205 colon,> 100 µM
same,TGI,SK-MEL-5 melanoma,> 100 µM
same,TGI,NCI-H522 lung,62.8 µM
same,TGI,MALME-3M melanoma,> 100 µM
same,TGI,T-47D breast,> 100 µM
same,TGI,ACHN renal,> 100 µM
same,TGI,DU-145 prostate,> 100 µM
same,TGI,OVCAR-4 ovarian,> 100 µM
same,TGI,CCRF-CEM leukemia,> 100 µM
same,TGI,A498 renal,> 100 µM
same,TGI,HT29 colon,> 100 µM
same,TGI,HS 578T breast,> 100 µM
same,TGI,NCI-H226 lung,> 100 µM
same,TGI,NCI/ADR-RES ovarian,> 100 µM
same,TGI,EKVX NSCLC,> 100 µM
same,TGI,SK-MEL-2 melanoma,> 100 µM
same,TGI,SF-268 CNS,67.2 µM
same,TGI,HCT-116 colon,> 100 µM
same,TGI,LOX IMVI melanoma,> 100 µM
same,TGI,OVCAR-8 ovarian,> 100 µM
same,TGI,U251 CNS,> 100 µM
same,TGI,SK-MEL-28 melanoma,> 100 µM
same,TGI,HOP-62 NSCLC,> 100 µM
same,TGI,HOP-92 NSCLC,> 100 µM
same,TGI,UACC-257 melanoma,> 100 µM
same,TGI,PC-3 prostate,> 100 µM
same,TGI,NCI-H460 lung,> 100 µM
same,TGI,SW-620 colon,> 100 µM
same,TGI,BT-549 breast,> 100 µM
same,TGI,SNB-19 CNS,> 100 µM
same,TGI,HCT-15 colon,> 100 µM
same,TGI,MDA-MB-435,> 100 µM
same,TGI,SNB-75 CNS,97.8 µM
same,TGI,NCI-H23 lung,> 100 µM
same,TGI,OVCAR-3 ovarian,> 100 µM
same,TGI,IGROV1 ovarian,> 100 µM
same,TGI,TK-10 renal,> 100 µM
same,TGI,HCC-2998 colon,> 100 µM
same,TGI,KM12 colon,> 100 µM
same,TGI,CAKI-1 renal,> 100 µM
same,TGI,UO-31 renal,> 100 µM
same,TGI,786-0 renal,> 100 µM
COc1ccc(Nc2nc(NNC(=O)Cc3ccccc3)nc(NNC(=O)c3ccncc3)n2)cc1,TGI,SN12C renal,> 10 µM
same,TGI,MDA-MB-231 breast,> 10 µM
same,TGI,SF-539 CNS,> 10 µM
same,TGI,SR leukemia,> 10 µM
same,TGI,UACC-62 melanoma,8.65 µM
same,TGI,A549 NSCLC,> 10 µM
same,TGI,MDA-N,> 10 µM
same,TGI,COLO 205 colon,> 10 µM
same,TGI,SK-MEL-5 melanoma,> 10 µM
same,TGI,NCI-H522 lung,> 10 µM
same,TGI,MALME-3M melanoma,> 10 µM
same,TGI,T-47D breast,> 10 µM
same,TGI,ACHN renal,> 10 µM
same,TGI,DU-145 prostate,> 10 µM
same,TGI,OVCAR-4 ovarian,> 10 µM
same,TGI,CCRF-CEM leukemia,> 10 µM
same,TGI,A498 renal,> 10 µM
same,TGI,HT29 colon,> 10 µM
same,TGI,SK-OV-3 ovarian,> 10 µM
same,TGI,NCI/ADR-RES ovarian,> 10 µM
same,TGI,OVCAR-5 ovarian,> 10 µM
same,TGI,EKVX NSCLC,> 10 µM
same,TGI,SF-268 CNS,> 10 µM
same,TGI,HCT-116 colon,> 10 µM
same,TGI,LOX IMVI melanoma,> 10 µM
same,TGI,OVCAR-8 ovarian,> 10 µM
same,TGI,U251 CNS,> 10 µM
same,TGI,SK-MEL-28 melanoma,> 10 µM
same,TGI,MOLT-4 leukemia,> 10 µM
same,TGI,HOP-62 NSCLC,> 10 µM
same,TGI,HOP-92 NSCLC,> 10 µM
same,TGI,UACC-257 melanoma,> 10 µM
same,TGI,K-562 leukemia,> 10 µM
same,TGI,NCI-H460 lung,> 10 µM
same,TGI,SF-295 CNS,> 10 µM
same,TGI,SW-620 colon,> 10 µM
same,TGI,M14 melanoma,> 10 µM
same,TGI,BT-549 breast,> 10 µM
same,TGI,SNB-19 CNS,> 10 µM
same,TGI,HCT-15 colon,> 10 µM
same,TGI,MDA-MB-435,> 10 µM
same,TGI,SNB-75 CNS,> 10 µM
same,TGI,NCI-H23 lung,> 10 µM
same,TGI,OVCAR-3 ovarian,> 10 µM
same,TGI,IGROV1 ovarian,> 10 µM
same,TGI,TK-10 renal,> 10 µM
same,TGI,HCC-2998 colon,> 10 µM
same,TGI,MCF7 breast,> 10 µM
same,TGI,KM12 colon,> 10 µM
same,TGI,CAKI-1 renal,> 10 µM
same,TGI,UO-31 renal,> 10 µM
same,TGI,786-0 renal,> 10 µM
Cc1cn(C2CC(SCCO)C(CO)O2)c(=O)[nH]c1=O (centres undefined),TGI,SN12C renal,> 100 µM
same,TGI,MDA-MB-231 breast,> 100 µM
same,TGI,SF-539 CNS,> 100 µM
same,TGI,SR leukemia,> 100 µM
same,TGI,UACC-62 melanoma,> 100 µM
same,TGI,A549 NSCLC,> 100 µM
same,TGI,MDA-N,> 100 µM
same,TGI,COLO 205 colon,> 100 µM
same,TGI,NCI-H522 lung,> 100 µM
same,TGI,MALME-3M melanoma,> 100 µM
same,TGI,RPMI-8226 leukemia,> 100 µM
same,TGI,T-47D breast,> 100 µM
same,TGI,ACHN renal,> 100 µM
same,TGI,DU-145 prostate,> 100 µM
same,TGI,OVCAR-4 ovarian,> 100 µM
same,TGI,CCRF-CEM leukemia,> 100 µM
same,TGI,A498 renal,> 100 µM
same,TGI,HT29 colon,> 100 µM
same,TGI,SK-OV-3 ovarian,> 100 µM
same,TGI,NCI-H226 lung,> 100 µM
same,TGI,NCI/ADR-RES ovarian,> 100 µM
same,TGI,OVCAR-5 ovarian,> 100 µM
same,TGI,EKVX NSCLC,> 100 µM
same,TGI,SK-MEL-2 melanoma,> 100 µM
same,TGI,SF-268 CNS,> 100 µM
same,TGI,HCT-116 colon,> 100 µM
same,TGI,OVCAR-8 ovarian,> 100 µM
same,TGI,U251 CNS,> 100 µM
same,TGI,SK-MEL-28 melanoma,> 100 µM
same,TGI,MOLT-4 leukemia,> 100 µM
same,TGI,HOP-62 NSCLC,> 100 µM
same,TGI,HOP-92 NSCLC,> 100 µM
same,TGI,UACC-257 melanoma,> 100 µM
same,TGI,PC-3 prostate,> 100 µM
same,TGI,K-562 leukemia,> 100 µM
same,TGI,NCI-H460 lung,> 100 µM
same,TGI,SF-295 CNS,> 100 µM
same,TGI,SW-620 colon,> 100 µM
same,TGI,M14 melanoma,> 100 µM
same,TGI,BT-549 breast,> 100 µM
same,TGI,SNB-19 CNS,> 100 µM
same,TGI,HCT-15 colon,> 100 µM
same,TGI,MDA-MB-435,> 100 µM
same,TGI,RXF 393 renal,> 100 µM
same,TGI,SNB-75 CNS,> 100 µM
same,TGI,NCI-H23 lung,> 100 µM
same,TGI,OVCAR-3 ovarian,> 100 µM
same,TGI,HL-60(TB) leukemia,> 100 µM
same,TGI,IGROV1 ovarian,> 100 µM
same,TGI,HCC-2998 colon,> 100 µM
same,TGI,MCF7 breast,> 100 µM
same,TGI,KM12 colon,> 100 µM
same,TGI,CAKI-1 renal,> 100 µM
same,TGI,UO-31 renal,> 100 µM
same,TGI,786-0 renal,> 100 µM
